ChEMBL document CHEMBL3352057, “Novel fluorinated pyrrolo[1,2-a]pyrazine-2,6-dione derivatives: synthesis and anticonvulsant evaluation in animal models of epilepsy” (Bioorg Med Chem, 2014)
Calls of active or inactive are those of the source. No cut-off for these calls is given here.

system: Rattus norvegicus; test: Anticonvulsant activity in Sprague-Dawley rat assessed as protection against maximal electroshock-induced seizures at 30 mg/kg, po measured after 1 hr; type: functional, organism-based; parameters: dose 30 mg/kg; conditions: not given

| SMILES | Activity |
| --- | --- |
| O=C1NC(=O)[C@@H](c2cccc(C(F)(F)F)c2)N2CCCC[C@H]12 | inactive |

system: Mus musculus; test: Neurotoxicity in 32 mA current-induced seizure albino CF1 mouse model at 100 mg/kg, ip measured after 0.5 hr; type: toxicity, organism-based; parameters: dose 100 mg/kg, route intraperitoneal; conditions: in vivo

| SMILES | Activity |
| --- | --- |
| O=C1NC(=O)[C@@H](c2cccc(C(F)(F)F)c2)N2CCCC[C@H]12 | Non-toxic |

system: Rattus norvegicus; test: Neurotoxicity in MES Sprague-Dawley rat model at 30 mg/kg, ip measured after 2 hrs; type: toxicity, organism-based; parameters: dose 30 mg/kg, route intraperitoneal; conditions: in vivo

| SMILES | Activity |
| --- | --- |
| O=C1NC(=O)[C@@H](c2cccc(C(F)(F)F)c2)N2CCCC[C@H]12 | Non-toxic |

system: Rattus norvegicus; test: Anticonvulsant activity in Sprague-Dawley rat assessed as protection against maximal electroshock-induced seizures at 30 mg/kg, po measured after 4 hrs; type: functional, organism-based; parameters: dose 30 mg/kg; conditions: not given

| SMILES | Activity |
| --- | --- |
| O=C1NC(=O)[C@@H](c2cccc(C(F)(F)F)c2)N2CCCC[C@H]12 | inactive |

system: Mus musculus; test: Anticonvulsant activity in albino CF1 mouse assessed as protection against maximal electroshock-induced seizures at 100 mg/kg, ip measured after 1 hr; type: functional, organism-based; parameters: dose 100 mg/kg; conditions: not given

| SMILES | Activity |
| --- | --- |
| O=C1NC(=O)[C@@H](c2cccc(C(F)(F)F)c2)N2CCCC[C@H]12 | Active |

system: Mus musculus; test: Anticonvulsant activity in albino CF1 mouse assessed as protection against maximal electroshock-induced seizures at 100 mg/kg, ip measured after 4 hrs; type: functional, organism-based; parameters: dose 100 mg/kg; conditions: not given

| SMILES | Activity |
| --- | --- |
| O=C1NC(=O)[C@@H](c2cccc(C(F)(F)F)c2)N2CCCC[C@H]12 | inactive |

system: Mus musculus; test: Anticonvulsant activity in albino CF1 mouse assessed as protection against 32 mA current-induced seizures at 100 mg/kg, ip measured after 1 hr; type: functional, organism-based; parameters: dose 100 mg/kg; conditions: not given

| SMILES | Activity |
| --- | --- |
| O=C1NC(=O)[C@@H](c2cccc(C(F)(F)F)c2)N2CCCC[C@H]12 | Active |

system: Rattus norvegicus; test: Anticonvulsant activity in Sprague-Dawley rat assessed as protection against maximal electroshock-induced seizures at 30 mg/kg, po measured after 0.5 hr; type: functional, organism-based; parameters: dose 30 mg/kg; conditions: not given

| SMILES | Activity |
| --- | --- |
| O=C1NC(=O)[C@@H](c2cccc(C(F)(F)F)c2)N2CCCC[C@H]12 | inactive |

system: Mus musculus; test: Neurotoxicity in 32 mA current-induced seizure albino CF1 mouse model at 100 mg/kg, ip measured after 1 hr; type: toxicity, organism-based; parameters: dose 100 mg/kg, route intraperitoneal; conditions: in vivo

| SMILES | Activity |
| --- | --- |
| O=C1NC(=O)[C@@H](c2cccc(C(F)(F)F)c2)N2CCCC[C@H]12 | Non-toxic |

system: Rattus norvegicus; test: Anticonvulsant activity in Sprague-Dawley rat assessed as protection against maximal electroshock-induced seizures at 30 mg/kg, ip measured after 1 hr; type: functional, organism-based; parameters: dose 30 mg/kg; conditions: not given

| SMILES | Activity |
| --- | --- |
| O=C1NC(=O)[C@@H](c2cccc(C(F)(F)F)c2)N2CCCC[C@H]12 | inactive |

system: Mus musculus; test: Anticonvulsant activity in albino CF1 mouse assessed as protection against 32 mA current-induced seizures at 100 mg/kg, ip measured after 0.25 hr; type: functional, organism-based; parameters: dose 100 mg/kg; conditions: not given

| SMILES | Activity |
| --- | --- |
| O=C1NC(=O)[C@@H](c2cccc(C(F)(F)F)c2)N2CCCC[C@H]12 | Active |

system: Mus musculus; test: Anticonvulsant activity in albino CF1 mouse assessed as protection against maximal electroshock-induced seizures at 100 mg/kg, ip measured after 0.25 hr; type: functional, organism-based; parameters: dose 100 mg/kg; conditions: not given

| SMILES | Activity |
| --- | --- |
| O=C1NC(=O)[C@@H](c2cccc(C(F)(F)F)c2)N2CCCC[C@H]12 | inactive |

system: Mus musculus; test: Neurotoxicity in albino CF1 mouse at 100 mg/kg, ip measured after 0.25 hr; type: toxicity, organism-based; parameters: dose 100 mg/kg, route intraperitoneal; conditions: in vivo

| SMILES | Activity |
| --- | --- |
| O=C1NC(=O)[C@@H](c2cccc(C(F)(F)F)c2)N2CCCC[C@H]12 | Non-toxic |

system: Rattus norvegicus; test: Anticonvulsant activity in Sprague-Dawley rat assessed as protection against maximal electroshock-induced seizures at 30 mg/kg, ip measured after 0.25 hr; type: functional, organism-based; parameters: dose 30 mg/kg; conditions: not given

| SMILES | Activity |
| --- | --- |
| O=C1NC(=O)[C@@H](c2cccc(C(F)(F)F)c2)N2CCCC[C@H]12 | inactive |

system: Rattus norvegicus; test: Neurotoxicity in MES Sprague-Dawley rat model at 30 mg/kg, po measured after 0.5 hr; type: toxicity, organism-based; parameters: dose 30 mg/kg, route oral; conditions: in vivo

| SMILES | Activity |
| --- | --- |
| O=C1NC(=O)[C@@H](c2cccc(C(F)(F)F)c2)N2CCCC[C@H]12 | Non-toxic |

system: Mus musculus; test: Anticonvulsant activity in albino CF1 mouse assessed as protection against subcutaneous metrazol-induced seizures at 100 mg/kg, ip measured after 4 hrs; type: functional, organism-based; parameters: dose 100 mg/kg; conditions: not given

| SMILES | Activity |
| --- | --- |
| O=C1NC(=O)[C@@H](c2cccc(C(F)(F)F)c2)N2CCCC[C@H]12 | inactive |

system: Rattus norvegicus; test: Anticonvulsant activity in Sprague-Dawley rat assessed as protection against maximal electroshock-induced seizures at 30 mg/kg, ip measured after 2 hrs; type: functional, organism-based; parameters: dose 30 mg/kg; conditions: not given

| SMILES | Activity |
| --- | --- |
| O=C1NC(=O)[C@@H](c2cccc(C(F)(F)F)c2)N2CCCC[C@H]12 | inactive |

system: Rattus norvegicus; test: Neurotoxicity in MES Sprague-Dawley rat model at 30 mg/kg, po measured after 2 hrs; type: toxicity, organism-based; parameters: dose 30 mg/kg, route oral; conditions: in vivo

| SMILES | Activity |
| --- | --- |
| O=C1NC(=O)[C@@H](c2cccc(C(F)(F)F)c2)N2CCCC[C@H]12 | Non-toxic |

system: Rattus norvegicus; test: Neurotoxicity in MES Sprague-Dawley rat model at 30 mg/kg, ip measured after 4 hrs; type: toxicity, organism-based; parameters: dose 30 mg/kg, route intraperitoneal; conditions: in vivo

| SMILES | Activity |
| --- | --- |
| O=C1NC(=O)[C@@H](c2cccc(C(F)(F)F)c2)N2CCCC[C@H]12 | Non-toxic |

system: Mus musculus; test: Neurotoxicity in 32 mA current-induced seizure albino CF1 mouse model at 100 mg/kg, ip measured after 4 hrs; type: toxicity, organism-based; parameters: dose 100 mg/kg, route intraperitoneal; conditions: in vivo

| SMILES | Activity |
| --- | --- |
| O=C1NC(=O)[C@@H](c2cccc(C(F)(F)F)c2)N2CCCC[C@H]12 | Non-toxic |

system: Rattus norvegicus; test: Neurotoxicity in MES Sprague-Dawley rat model at 30 mg/kg, ip measured after 1 hr; type: toxicity, organism-based; parameters: dose 30 mg/kg, route intraperitoneal; conditions: in vivo

| SMILES | Activity |
| --- | --- |
| O=C1NC(=O)[C@@H](c2cccc(C(F)(F)F)c2)N2CCCC[C@H]12 | Non-toxic |
